BindingDB's records for doi:10.1021/acs.jmedchem.6b00705 (Leiden Institute of Chemistry, 2016)
pIC50: −log10 of the molar value.

What was measured:
[1] = target: Proteasome subunit beta type-2 (Homo sapiens, UniProt P49721); assay: Inhibition of catalytic activity of constitutive proteasome 20s subunit beta2 in human Raji cells incubated for 1 hr by BODIPY(FL)-LU-112 probe based competitive activity based protein profiling assay
[2] = Inhibition of catalytic activity of immunoproteasome 20s subunit beta2 in human Raji cells incubated for 1 hr by BODIPY(FL)-LU-112 probe based competitive activity based protein profiling assay

Row | Compound | pIC50 [1] | pIC50 [2]
1 | COc1ccc(C[C@H](NC(=O)[C@H](Cc2ccccc2)N=[N+]=[N-])C(=O)N[C@@H](Cc2ccccc2)C(=O)N[C@@H](CC(C)C)C(=O)[C@@]2(C)CO2)cc1 | 6.96 | 
2 | CC(C)C[C@H](NC(=O)[C@H](Cc1ccccc1)NC(=O)[C@H](CCc1ccccc1)NC(=O)[C@H](Cc1ccccc1)N=[N+]=[N-])C(=O)[C@@]1(C)CO1 | 7.22 | 
3 | CC(C)C[C@H](NC(=O)CN1CCOCC1)C(=O)N[C@@H](C[C@H]1CC[C@H](C2CCCCC2)CC1)C(=O)N[C@@H](Cc1ccccc1)C(=O)N[C@@H](C)C(=O)[C@@]1(C)CO1 | < 4.00 | < 4.00
4 | CC1=C(C(=O)N[C@H](C)C(=O)N[C@@H](Cc2c[nH]c3ccccc23)C(=O)N[C@@H](CC2CCCCC2)C(=O)[C@@]2(C)CO2)Cc2ccccc21 | < 6.00 | < 6.00

Further lines, results first:

Row | pIC50 [1] | pIC50 [2] | Compound
5 | < 4.00 | 6.52 | C[C@H](NC(=O)[C@H](Cc1ccccc1)NC(=O)[C@H](C[C@H]1CC[C@@H](c2ccccc2)CC1)NC(=O)[C@H](Cc1ccccc1)N=[N+]=[N-])C(=O)[C@@]1(C)CO1
6 | < 4.00 | < 4.00 | C[C@H](NC(=O)[C@H](Cc1ccccc1)NC(=O)[C@H](C[C@H]1CC[C@H](c2ccccc2)CC1)NC(=O)[C@H](Cc1ccccc1)N=[N+]=[N-])C(=O)[C@@]1(C)CO1
7 | 7.34 |  | CC(C)C[C@H](NC(=O)[C@H](Cc1ccccc1)NC(=O)[C@H](CC1CCC(C)CC1)NC(=O)[C@H](Cc1ccccc1)N=[N+]=[N-])C(=O)[C@@]1(C)CO1 (some centres not stated)
8 | 7.18 |  | CC(C)C[C@H](NC(=O)[C@H](Cc1ccccc1)NC(=O)[C@H](Cc1ccccc1)NC(=O)[C@H](Cc1ccccc1)N=[N+]=[N-])C(=O)[C@@]1(C)CO1 [(S)-2-azido-N-((S)-1-((S)-1-((S)-4-methyl-1-((R)-2-methyloxiran-2-yl)-1-oxopentan-2-ylamino)-1-oxo-3-phenylpropan-2-ylamino)-1-oxo-3-phenylpropan-2-yl)-3-phenylpropanamide]
